Source: publication PMC8843131, “Inhibition studies of bacterial α-carbonic anhydrases with phenols” (Journal of Enzyme Inhibition and Medicinal Chemistry, 2022)
Read-outs that look alike come from different tables or passages of the source.

Assays:
NgCAα = biological target: T1, NgCAα (Neisseria gonorrhoeae, UniProt Q50940); test: stopped-flow CO2 hydrase assay; format: biochemical
T1 construct: gene cah; recombinant, obtained in-house as described earlier
T1 sequence (Q50940 27-252): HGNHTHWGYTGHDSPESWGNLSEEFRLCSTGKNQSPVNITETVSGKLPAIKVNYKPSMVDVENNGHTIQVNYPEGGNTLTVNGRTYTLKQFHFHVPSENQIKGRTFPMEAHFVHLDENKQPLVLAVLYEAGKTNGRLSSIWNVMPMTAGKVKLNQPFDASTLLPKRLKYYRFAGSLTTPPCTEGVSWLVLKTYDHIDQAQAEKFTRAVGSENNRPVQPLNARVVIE

VchCAα = biological target: T2, VchCAα (Vibrio cholerae, UniProt Q9KMP6); test: stopped-flow CO2 hydrase assay; format: biochemical; conditions: read-out: KI (μM)^a / VchCAα; CO2 substrate 1.7-17 mM, 10 mM HEPES pH 7.4, 10 mM NaClO4, 15 min preincubation
T2 construct: gene VC_A0274
T2 sequence (Q9KMP6 21-239 limits assumed): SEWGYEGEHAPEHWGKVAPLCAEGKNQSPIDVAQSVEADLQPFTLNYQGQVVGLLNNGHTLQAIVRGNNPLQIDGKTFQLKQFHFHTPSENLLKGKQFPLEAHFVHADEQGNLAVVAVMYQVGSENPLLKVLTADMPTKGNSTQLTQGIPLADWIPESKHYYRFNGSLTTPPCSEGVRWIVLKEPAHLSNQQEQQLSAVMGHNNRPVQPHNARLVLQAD

SMILES	Ki (NgCAα)	Ki (VchCAα)	Ki (NgCAα; CO2 substrate 1.7-17 mM, 10 mM HEPES pH 7.4, 10 mM NaClO4, 15 min preincubation)
OCc1ccc(O)cc1 [compound 12, 4-hydroxy-benzylalcohol]	0.6 µM	1.2 µM	
Nc1ccc(O)cc1 [compound 7, 7]	6 µM	10.6 µM	
O=C(O)c1ccc(O)c(O)c1 [compound 18, 3,4-dihydroxybenzoic acid]	9.3 µM	13.8 µM	
Oc1ccc(O)cc1 [compound 4, 4]	4.7 µM	8.4 µM	
Oc1cccc(O)c1 [compound 3, 3]	2.2 µM	8.6 µM	
Oc1cc(F)cc(F)c1 [compound 16, 3,5-difluorophenol]	3.7 µM	4.9 µM	
N#Cc1ccc(O)cc1 [compound 9, 4-cyanophenol]		17.2 µM	24.2 µM
Nc1cc(O)ccc1Cl [compound 13, 3-amino-4-chlorophenol]	0.8 µM	0.7 µM	
Oc1ccc(F)cc1F [compound 15, 15]	35.9 µM	36.6 µM	
O=C(O)/C=C/c1ccc(O)c(O)c1 [compound 22, caffeic acid]	76 µM	78.1 µM	
Oc1ccccc1 [compound 1, phenol]	0.9 µM	0.8 µM	
Oc1ccccc1O [compound 2, 2]	5.3 µM	20.3 µM	
CC(=O)Nc1ccc(O)cc1 [compound 8, paracetamol]	1.5 µM	7 µM	
Nc1ccc(O)c(Cl)c1 [compound 14, 14]	71.5 µM	81.6 µM	
Oc1ccc(O)c(O)c1 [compound 5, 5]	3.9 µM	9.4 µM	
O=C(O)c1ccc(O)cc1 [compound 11, 4-hydroxy-benzoic acid]	8.7 µM	3.5 µM	
O=C(O)c1cc(O)ccc1O [compound 20, 20]	16.3 µM	7.3 µM	
Nc1cccc(O)c1 [compound 6, 3-aminophenol]	1.7 µM	3.9 µM	
O=C(O)c1c(O)cccc1O [compound 19, 19]	33.1 µM	49.6 µM	
O=C(O)c1ccccc1O [compound 10, salicylic acid]	43.8 µM	39.1 µM	
O=C(O)/C=C/c1ccc(O)cc1 [compound 21, 21]	10 µM	40.5 µM	
